ChEMBL document CHEMBL1926682, “Triterpene galactosides of the pouoside class and corresponding aglycones from the sponge Lipastrotethya sp” (J Nat Prod, 2011)
≈ marks a conversion by molar mass, not a printed value.

System: K562
Assay: Cytotoxicity against human K562 cells by spectrophotometric analysis
Assay type: functional, cell-based
Details: not given

Point of comparison: CC(=O)O[C@@H](C[C@@H]1C(C)=CCC(=O)C1(C)C)/C(C)=C/[C@@H](C/C=C(\C)CC[C@H]1C(C)(C)[C@@H](O)CC[C@]1(C)OC(C)=O)OC(C)=O [POUOGENIN B], IC50 38.9 µM. Against it:
- CC(=O)O[C@@H](C[C@H]1C(C)(C)C(=O)C=C[C@]1(C)O)/C(C)=C/[C@H](O)C/C=C(\C)CC[C@H]1C(C)(C)[C@@H](O)CC[C@]1(C)OC(C)=O [POUOGENIN D] — within 1.5-fold, 27.5 µM
- C=C1CC[C@H](O[C@@H]2O[C@H](CO)[C@H](O)[C@H](O)[C@H]2O)C(C)(C)[C@@H]1CC/C(C)=C/C[C@H](/C=C(\C)[C@H](C[C@@H]1C(C)=CCC(=O)C1(C)C)OC(C)=O)OC(C)=O [POUOSIDE I] — higher, > 100 µM
- CC(=O)O[C@@]1(C)CC[C@H](O[C@@H]2O[C@H](CO)[C@H](O)[C@H](O)[C@H]2O)C(C)(C)[C@@H]1CC/C(C)=C/C[C@@H](O)/C=C(\C)C(=O)C[C@H]1C(C)(C)C(=O)C=C[C@]1(C)O [POUOSIDE H] — higher, > 100 µM
- CC(=O)O[C@@H](C[C@@H]1C(C)=CCC(=O)C1(C)C)/C(C)=C/[C@H](O)C/C=C(\C)CC[C@H]1C(C)(C)[C@@H](O)CC[C@]1(C)OC(C)=O [POUOGENIN C] — 2.7-fold lower, 14.6 µM
- CC(=O)O[C@@H](C[C@H]1C(C)(C)C(=O)C=C[C@]1(C)O)/C(C)=C/[C@H](O)C/C=C(\C)CC[C@H]1C(C)(C)[C@@H](O[C@@H]2O[C@H](CO)[C@H](O)[C@H](O)[C@H]2O)CC[C@]1(C)OC(C)=O [POUOSIDE G] — higher, > 100 µM
- CC(=O)O[C@H]1[C@H](O[C@H]2CC[C@](C)(OC(C)=O)[C@@H](CC/C(C)=C/C[C@H](/C=C(\C)[C@H](C[C@@H]3C(C)=CCC(=O)C3(C)C)OC(C)=O)OC(C)=O)C2(C)C)O[C@H](CO)[C@H](O)[C@@H]1O [POUOSIDE D] — 3.1-fold lower, 12.5 µM
- COc1cccc2c1C(=O)c1c(O)c3c(c(O)c1C2=O)C[C@@](O)(C(=O)CO)C[C@@H]3O[C@H]1C[C@H](N)[C@H](O)[C@H](C)O1 [DOXORUBICIN] — 2.9-fold lower, 13.6 µM
- CC(=O)O[C@@]1(C)CC[C@H](O[C@@H]2O[C@H](CO)[C@H](O)[C@H](O)[C@H]2O)C(C)(C)[C@@H]1CC/C(C)=C/C[C@@H](O)/C=C(\C)[C@@H](O)C[C@@H]1C(C)=CCC(=O)C1(C)C [POUOSIDE F] — higher, > 100 µM
- CC(=O)O[C@@]1(C)CC[C@H](O)C(C)(C)[C@@H]1CC/C(C)=C/C[C@@H](O)/C=C(\C)[C@@H](O)C[C@@H]1C(C)=CCC(=O)C1(C)C [POUOGENIN A] — 2.6-fold lower, 14.8 µM
- CC(=O)O[C@@H](C[C@@H]1C(C)=CCC(=O)C1(C)C)/C(C)=C/[C@H](O)C/C=C(\C)CC[C@H]1C(C)(C)[C@@H](O[C@@H]2O[C@H](CO)[C@H](O)[C@H](O)[C@H]2O)CC[C@]1(C)OC(C)=O [POUOSIDE B] — higher, > 100 µM
- CC(=O)O[C@@]1(C)CC[C@H](O)C(C)(C)[C@@H]1CC/C(C)=C/C[C@@H](O)/C=C(\C)C(=O)C[C@H]1C(C)(C)C(=O)C=C[C@]1(C)O [POUOGENIN E] — 2.1-fold lower, 18.9 µM
- CC(=O)O[C@@H](C[C@@H]1C(C)=CCC(=O)C1(C)C)/C(C)=C/[C@@H](C/C=C(\C)CC[C@H]1C(C)(C)[C@@H](O[C@@H]2O[C@H](CO)[C@H](O)[C@H](O)[C@H]2O)CC[C@]1(C)OC(C)=O)OC(C)=O [POUOSIDE A] — 2.3-fold lower, 17 µM

System: P388
Assay: Cytotoxicity against mouse P388 cells
Assay type: functional
Details: read-out: ED50 (the source's name)

Molecule CC(=O)O[C@@H](C[C@@H]1C(C)=CCC(=O)C1(C)C)/C(C)=C/[C@@H](C/C=C(\C)CC[C@H]1C(C)(C)[C@@H](O[C@@H]2O[C@H](CO)[C@H](O)[C@H](O)[C@H]2O)CC[C@]1(C)OC(C)=O)OC(C)=O [POUOSIDE A] has an EC50 of 1.5 µg/mL (≈ 1.93 µM).
